Results reported in US7648976B2, “17-allylamino-17-demethoxygeldanamycin polymorphs and formulations” (Bristol-Myers Squibb Company, priority 2005, dated 2010).
Entries after “also recorded” stand apart in the source; their conditions may differ.

Key:
[1] = Effect of 17-AAG starting polymorph on formulation properties; type: physicochemical; settings: non-sterile formulation made by procedure of Example 7 from the named polymorph
Procedure: Particle size distribution was determined by dynamic light scattering with a Nanotract 250 particle size analyzer (Microtrac Inc., Montgomeryville, Pa.). The Nanotrac 250 settings were configured for measuring the PSD (volume distribution) of “Irregular” Shaped particles of “Absorbing” Transparency in a fluid with characteristics of water (Refractive Index: 1.333, Viscosity at 20° C.: […], Viscosity at 30° C.: 1.002 cP). A background signal was measured using 5% Dextrose for Injection (D5W). Then, the nanoparticle formulation was diluted 10 to 20-fold into D5W and mixed well. The PSD of the diluted sample was measured as the average of five replicate 5-minute analyses and reported in histogram format as a function of particle size. While the PSD reflects the range and frequency of particle sizes, other characteristics of the PSD were used for quantitation. The D50 is the volume percentile corresponding to the particle size larger than 50% of the total particle volume (i.e. the median particle size). The D90 is the volume percentile corresponding to the particle size larger than 90% of the total particle volume and is a measure of the largest particles in the dispersion. The particle size distribution measured by dynamic light scattering techniques was supplemented with SEM images, acquired by techniques established in the art. The particle sizes determined via the SEM images were in general agreement with those determined by light scattering.
17-AAG (purified Polymorph C, 1.25 g) was mixed with WFI (3.62 g) and a solution of polysorbate 80 (2.5 g of a 10 weight % solution in WFI), an aqueous suspension of soybean phosphatidylcholine (0.63 g of a 10 weight % suspension in WFI), and a solution of sucrose (10 g of a 25 weight % solution in WFI). The mixture was loaded into the reservoir of a Microfluidics Model 110S microfluidizer containing 7 g WFI set up as described in the previous example and processed under the same conditions. This procedure yielded a formulation having a 17-AAG concentration of approximately 50 mg/mL in an aqueous medium having approximately 1.0 weight % polysorbate 80, 0.25 weight % soy phosphatidylcholine, and 10 weight % sucrose, with a 17-AAG particle size distribution of below 1 micron with median particle size of 300 nm volume distribution.
Non-sterile formulations of 17-AAG were made with other polymorphs using the procedure of Example 7 and compared against formulations made with purified Polymorph C.

[2] = Polymorph stability to heat and humidity (VT-XRPD, DSC); type: physicochemical; settings: for polymorph conversion upon heating: VT-XRPD and/or DSC
From the text: 17-AAG is polymorphic and exists in multiple forms, many of which are solvates. We have generated many polymorphs using a variety of solvents and crystallization conditions. The polymorphs were characterized by techniques such as XRPD, DSC, infrared spectroscopy, gravimetric vapor sorption (GVS), ^1H-NMR, polarized light microscopy (PLM), and thermogravimetric analysis (TGA). We grouped the polymorphs according to similarities in XRPD data, with summary descriptions provided below. Polymorphs that are solvated are referred to by group and solvate names, as in “Polymorph A (DMF solvate)” or “the DMF solvate of Polymorph A”. • Group A The N,N-dimethylformamide (DMF), ethyl acetate (EtOAc), and methyl isobutyl ketone (MIBK) solvates of Polymorph A all have XRPD peaks at about 5.6, 7.0, 9.2, 11.2, 16.4, and 17.9 degrees 2θ (the first four being its lowest angle peaks). […] It has characteristic XRPD peaks at about 6.4, 8.3, 9.6, 13.3, 14.9, 15.7, 19.1, and 20.8 degrees 2θ. […] Typically, this polymorph group is prepared using high boiling solvents. After melting, these polymorphs exist in a molten state until decomposition at about 220° C.

Compound: C=CCNC1=C2C[C@@H](C)C[C@H](OC)[C@H](O)[C@@H](C)/C=C(\C)[C@H](OC(N)=O)[C@@H](OC)/C=C\C=C(/C)C(=O)NC(=CC1=O)C2=O [Amorphous, 17-allylamino-17-demethoxygeldanamycin]
- Consistency ([1]; listed as Amorphous (1st run)): Paste-like
- Remarks ([1]; listed as Amorphous (1st run)): Does not form stable
- Consistency ([1]; listed as Amorphous (2nd run)): Paste-like
- Remarks ([1]; listed as Amorphous (2nd run)): Does not form stable

Compound: C=CCNC1=C2C[C@@H](C)C[C@H](OC)[C@H](O)[C@@H](C)/C=C(\C)[C@H](OC(N)=O)[C@@H](OC)/C=C\C=C(/C)C(=O)NC(=CC1=O)C2=O [Polymorph A, 17-allylamino-17-demethoxygeldanamycin]
- polymorph conversion upon heating [2]: converted to the more stable Polymorph C

Compound: C=CCNC1=C2C[C@@H](C)C[C@H](OC)[C@H](O)[C@@H](C)/C=C(\C)[C@H](OC(N)=O)[C@@H](OC)/C=C\C=C(/C)C(=O)NC(=CC1=O)C2=O [Polymorph B, 17-allylamino-17-demethoxygeldanamycin]
- polymorph conversion upon heating [2]: converted to Polymorph C
- Consistency ([1]; listed as B (1st run)): Highly viscous
- D50 ([1]; listed as B (1st run)): 1.8 μm
- Consistency ([1]; listed as B (2nd run)): Highly viscous
- D50 ([1]; listed as B (2nd run)): 2.0 μm

Compound: C=CCNC1=C2C[C@@H](C)C[C@H](OC)[C@H](O)[C@@H](C)/C=C(\C)[C@H](OC(N)=O)[C@@H](OC)/C=C\C=C(/C)C(=O)NC(=CC1=O)C2=O [Polymorph C, 17-allylamino-17-demethoxygeldanamycin]
- polymorph conversion upon heating [2]: does not convert to any other polymorph upon heating
- relative stability among 17-AAG polymorphs ([2]; moisture/humidity and heat): the most stable to moisture and heat; also recorded: the most stable to heat and humidity
- Consistency [1]: Water-like
- D50 [1]: 0.28 μm
- Remarks [1]: Stable nanoparticle

Compound: C=CCNC1=C2C[C@@H](C)C[C@H](OC)[C@H](O)[C@@H](C)/C=C(\C)[C@H](OC(N)=O)[C@@H](OC)/C=C\C=C(/C)C(=O)NC(=CC1=O)C2=O [Polymorph D (dichloromethane solvate), 17-allylamino-17-demethoxygeldanamycin]
- polymorph conversion upon heating [2]: converts to Polymorph C

Compound: C=CCNC1=C2C[C@@H](C)C[C@H](OC)[C@H](O)[C@@H](C)/C=C(\C)[C@H](OC(N)=O)[C@@H](OC)/C=C\C=C(/C)C(=O)NC(=CC1=O)C2=O [Polymorph E, 17-allylamino-17-demethoxygeldanamycin]
- polymorph conversion under humidity ([2]; 40° C. and 70% relative humidity (RH)): conversion to Polymorph C is observed

Compound: C=CCNC1=C2C[C@@H](C)C[C@H](OC)[C@H](O)[C@@H](C)/C=C(\C)[C@H](OC(N)=O)[C@@H](OC)/C=C\C=C(/C)C(=O)NC(=CC1=O)C2=O [Polymorph G, 17-allylamino-17-demethoxygeldanamycin]
- polymorph conversion upon heating [2]: Heating converts Polymorph G to Polymorph C
- Consistency [1]: Water-like
- D50 [1]: 0.36 μm
